Values quoted from earlier work in patent US20040023948A1, “Fast-dispersing dosage form containing 5-HT1 agonists” (priority 1997, published 2004).

Details: Vogel conflict test in rats; Gammans et al. 1986

## c1cnc(N2CCNCC2)nc1 [Example 1-PP, 1-pyrimidinylpiperazine]
  activity relative to unchanged buspirone: ≤ 20%
